# Assay results reported in patent publication US20190330142A1, “INHIBITORS OF MTOR-DEPTOR INTERACTIONS AND METHODS OF USE THEREOF” (The Regents of the University of California, priority 2016, published 2019).
# “Also recorded” adds a separate entry of the source. Like-named read-outs stand apart in the source and are kept apart here.
# Experiments:
# 8226 MM cell line = experiment: MTT cytotoxicity assay, 8226 MM cells; details: for IC50: 48 h; for anti-MM cytotoxicity in MTT assay compared to parent B: 48 hr MTT
# Experimental: In mTORC1, mTOR phosphorylates the p70S6 kinase. Thus, a Western blot was used to test for induction of p70 phosphorylation in this secondary screen. Compounds were tested at 0.5, 1, and 2 uM with 6 hrs in vitro exposure. […] A summary of the p70 phosphorylation data from 4 separate experiments where derivatives were used at 0.5 uM, is shown in FIG. 3B. These first 8 derivatives were also screened for cytotoxicity against the same 8226 MM cell line in 48 hr MTT assays.
# P70 phosphorylation was measured in 8226 cells treated for 6 hrs. […] The structures and biological activity of all derivatives are shown in Tables 1-4, categorized by structural modification.
# The MTT assay was performed by seeding 1-2×10^4 target cells in 0.1 ml of complete media into wells of a 96 well microtiter plate. After incubation with compounds, the reduction of MTT to formazan by live cells was determined with a microplate ELISA reader equipped with a 570 nm filter.
# The induction of p70 phosphorylation by derivative compounds was determined by densitometry, comparing immunoblot signals of phosphorylated p70 vs total p70. This ratio was then compared to that resulting from parental compound B, with the latter ratio arbitrarily placed at ‘1’. The IC50 for MTT cytotoxicity was determined using a range of concentrations of derivatives. Percent apoptosis was enumerated by flow cytometry in drug-treated cultures by subtracting control apoptosis determined from DMSO-treated cultures.
# MM1.S MM cell line = experiment: MTT cytotoxicity assay, MM1.S cells; assay type: cell-based; details: Homo sapiens, 48 hr
# Experimental: The MTT assay was performed by seeding 1-2×10^4 target cells in 0.1 ml of complete media into wells of a 96 well microtiter plate. After incubation with compounds, the reduction of MTT to formazan by live cells was determined with a microplate ELISA reader equipped with a 570 nm filter. Quadruplicate wells were run for each group and the SD of each group was always <5% of the mean.
# [1] = system: p70 phosphorylation (mTORC1 activity) in 8226 cells; experiment: p70 phosphorylation Western blot (TORC1 activity) in 8226 cells; assay type: cell-based; details: for p70 phosphorylation vs compound B at lower concentrations: as low as 0.25 uM; for p70 phosphorylation vs compound B at lower concentrations / induction of p70 phosphorylation / p70 phosphorylation vs the parent B: 6 hrs; for p70 phosphorylation vs the parent B: compound B arbitrarily 1
# Experimental: In mTORC1, mTOR phosphorylates the p70S6 kinase.
# (§1) The 8226 and MM1.S myeloma cell lines were purchased from ATCC. The cell lines were characterized by FISH analysis and shown to contain MAF/Ig translocations. Western blot confirmed a significant over-expression of DEPTOR protein. Both lines were tested for mycoplasma within the last 6 months and were negative. Western blot assay—Protein was extracted and separated by 12.5% SDS-PAGE as previously described (see new ref below). Proteins were transferred to polyvinylidene difluoride membranes and their expression was detected utilizing specific antibodies purchased from Cell Signaling (Beverly, Mass.).
# p21 expression = p21 expression immunoblot; assay type: cell-based
# Experimental: (§2) These were then studied in more detail. […] This was clearly shown for 4d, 4e, 4 g, and 3 g.
# as §1
# 8226 cells = experiment: apoptosis assay (activated caspase 3, flow cytometry) in 8226 cells; assay type: cell-based; details: 48 hrs
# Experimental: as §2
# To identify apoptotic cells, a phycoerythrin (PE)-conjugated antibody specific for activated caspase 3 (BD Biosciences) was used. For staining, 10^6 cells were washed with PB S and fixed and permeabilized with 0.5 ml cytofix/cytoperm solution. The cells were then incubated with a 1:5 dilution of PE-conjugated monoclonal anti-caspase 3 antibody for 30 mins and analyzed by flow cytometry.
# [2] = 8226 cells, 0.5 uM, compared to compound B
# [3] = read-out: MTT (IC50, uM) 8226, 48 hr
SMILES,"IC50 (8226 MM cell line; read-out: MTT (IC50, uM) 8226) [µM]",anti-MM cytotoxicity in MTT assay compared to parent B (8226 MM cell line),IC50 (MM1.S MM cell line) [µM],"induction of p70 phosphorylation [1, 2]","p70 phosphorylation vs the parent B ([1]; 8226 cells, 0.5 uM)",other results
"Cc1ccc(C(=O)N(N=C2C(Cl)=C(Cl)C(Cl)=C2Cl)C(=O)c2ccc(C)cc2)cc1 [4f, 4-Methyl-N-(4-methylbenzoyl)-N′-(perchlorocyclopenta-2,4-dien-1-ylidene)benzohydrazide]",0.5,enhanced cytotoxic effects,0.5,,,
"CC(C)(C)C(=O)NN=C1C(Cl)=C(Cl)C(Cl)=C1Cl [4d, N′-(Perchlorocyclopenta-2,4-dien-1-ylidene)pivalohydrazide]",0.12,enhanced cytotoxic effects,2,,,p70 phosphorylation vs compound B at lower concentrations [1]: significantly more effective; p21 expression compared to parent compound B (p21 expression): enhanced p21 expression; apoptosis activity compared to parent compound B (8226 cells): enhanced compared to parent compound B
"C#CCOC(=O)NN=C1C(Cl)=C(Cl)C(Cl)=C1Cl [compound 4h, Prop-2-yn-1-yl 2-(perchlorocyclopenta-2,4-dien-1-ylidene)hydrazine-1-carboxylate]",0.8,some cytotoxicity; also recorded: enhanced cytotoxic effects,,minimal increase,,
"NN=C1c2ccccc2-c2ccccc21 [6a, (9H-Fluoren-9-ylidene)hydrazine]",> 5,did not show any improvement,,did not show any improvement,no increase,
"ClC1=C(Cl)C(Cl)=C(Cl)C1=NNc1ccccc1 [3d, 1-(Perchlorocyclopenta-2,4-dien-1-ylidene)-2-phenylhydrazine]",0.6,lower IC50s; also recorded: enhanced cytotoxic effects,2,,,
"Fc1ccccc1NN=C1C(Cl)=C(Cl)C(Cl)=C1Cl [3j, 1-(2-Fluorophenyl)-2-(perchlorocyclopenta-2,4-dien-1-ylidene)hydrazine]",> 3,,> 3,no activity,no increase,
"CC(C)(C)OC(=O)NN=C1c2ccccc2-c2ccccc21 [6e, tert-Butyl 2-(9H-fluoren-9-ylidene)hydrazine-1-carboxylate]",> 5,did not show any activity,> 5,did not show any activity,no increase,
"O=C(NN=C1C(Cl)=C(Cl)C(Cl)=C1Cl)c1ccccc1 [compound 4a, N′-(Perchlorocyclopenta-2,4-dien-1-ylidene)benzohydrazide]",0.6,enhanced cytotoxic effects,0.8,,,"toxicity to 8226 cells in p70 experiment ([1]; 0.5 uM): considerable cell death; enhancement of p70 phosphorylation ([1]; 8226 cells, 0.05-0.2 uM): no enhancement of p70 phosphorylation; induction of p70 phosphorylation ([1]; 8226 cells, 1 or 2 uM): toxic and showed degradation of p70"
"CN(C)N=C1C(Cl)=C(Cl)C(Cl)=C1Cl [compound 3a, 1,1-Dimethyl-2-(perchlorocyclopenta-2,4-dien-1-ylidene)hydrazine]",> 3,,> 3,,no increase,
"Cc1cccc(NN=C2C(Cl)=C(Cl)C(Cl)=C2Cl)c1 [3h, 1-(Perchlorocyclopenta-2,4-dien-1-ylidene)-2-(m-tolyl)hydrazine]",2,,> 3,,no increase,
"ON=C1C(Cl)=C(Cl)C(Cl)=C1Cl [7a, 2,3,4,5-Tetrachlorocyclopenta-2,4-dien-1-one oxime]",,poor activity,,poor activity,no increase,IC50 (8226 MM cell line; [3]): > 5 µM
"ClC1=C(Cl)C(Cl)=C(Cl)C1=NNC1CCCCC1 [3b, 1-Cyclohexyl-2-(perchlorocyclopenta-2,4-dien-1-ylidene)hydrazine]",> 3,,> 3,,no increase,
"CC(C)(C)NN=C1C(Cl)=C(Cl)C(Cl)=C1Cl [compound 3c, 1-(tert-Butyl)-2-(perchlorocyclopenta-2,4-dien-1-ylidene)hydrazine]",> 3,,> 3,only modest activity,no increase,
"O=C(c1ccc(F)cc1)N(N=C1C(Cl)=C(Cl)C(Cl)=C1Cl)C(=O)c1ccc(F)cc1 [compound 4e, 4-Fluoro-N-(4-fluorobenzoyl)-N′-(perchlorocyclopenta-2,4-dien-1-ylidene)benzohydrazide]",0.25,enhanced cytotoxic effects,0.3,,,p70 phosphorylation vs compound B at lower concentrations [1]: significantly more effective; p21 expression compared to parent compound B (p21 expression): enhanced p21 expression; apoptosis activity compared to parent compound B (8226 cells): enhanced compared to parent compound B
"COC1(OC)C(Cl)=C(Cl)C(Cl)=C1Cl [7b, 1,2,3,4-Tetrachloro-5,5-dimethoxycyclopenta-1,3-diene]",,poor activity,,poor activity,no increase,IC50 (8226 MM cell line; [3]): > 5 µM
"C#CC(C)(C)OC(=O)NN=C1C(Cl)=C(Cl)C(Cl)=C1Cl [4i, 2-Methylbut-3-yn-2-yl 2-(perchlorocyclopenta-2,4-dien-1-ylidene)hydrazine-1-carboxylate]",> 5,,,minimal increase,,
"ClC1=C(Cl)C(Cl)=C(Cl)C1=NNc1cc(Cl)cc(Cl)c1 [3f, 1-(3,5-dichlorophenyl)-2-(perchlorocyclopenta-2,4-dien-1-ylidene)hydrazine]",0.8,lower IC50s; also recorded: enhanced cytotoxic effects,2,,,
"Fc1cccc(NN=C2C(Cl)=C(Cl)C(Cl)=C2Cl)c1 [3e, 1-(3-Fluorophenyl)-2-(perchlorocyclopenta-2,4-dien-1-ylidene)hydrazine]",0.5,lower IC50s; also recorded: enhanced cytotoxic effects,1.5,,,
"ClC1=C(Cl)C(Cl)=C(Cl)C1=NN(c1ccccc1)c1ccccc1 [3l, 2-(Perchlorocyclopenta-2,4-dien-1-ylidene)-1,1-diphenylhydrazine]",> 3,,> 3,,no increase,
"Fc1cccc(NN=C2c3ccccc3-c3ccccc32)c1 [6d, 1-(9H-Fluoren-9-ylidene)-2-(3-fluorophenyl)hydrazine]",> 5,did not show any activity,> 5,did not show any activity,no increase,
"NN=c1c2ccccc2oc2ccccc12 [6b, (9H-Xanthen-9-ylidene)hydrazine]",> 5,did not show any improvement,> 5,did not show any improvement,no increase,
"COc1cccc(NN=C2C(Cl)=C(Cl)C(Cl)=C2Cl)c1 [3i, 1-(3-Methoxyphenyl)-2-(perchlorocyclopenta-2,4-dien-1-ylidene)hydrazine]",> 3,,> 3,,no increase,
"O=C(c1ccccc1)N(N=C1C(Cl)=C(Cl)C(Cl)=C1Cl)C(=O)c1ccccc1 [compound 4b, N-Benzoyl-N′-(perchlorocyclopenta-2,4-dien-1-ylidene)benzohydrazide]",0.8,lower IC50s; also recorded: enhanced cytotoxic effects,2,more effective than the parent compound B,,
"CC(=O)NN=C1C(Cl)=C(Cl)C(Cl)=C1Cl [4c, N′-(Perchlorocyclopenta-2,4-dien-1-ylidene)acetohydrazide]",1,,,no increase,no increase,
